Here are results for 27 molecules from patent US9440964B2, “Pesticidal compositions and processes related thereto” (Dow AgroSciences LLC, priority 2011, dated 2016).

The subject of assay [1] is BAW (Spodoptera exigua). Briefly: Bioassay on Beet Armyworm (BAW), 128-well diet tray. Format: in vivo. The note with it: Spodoptera exigua, 168 h, read-out: Rating BAW. As for the experimental part: (§1) Certain molecules disclosed in this document were tested against BAW and CEW using procedures described in the following examples. In the reporting of the results, the “BAW & CEW Rating Table” was used (See Table Section).
Bioassays on BAW (Spodoptera exigua)
(§2) Trays were covered with a clear self-adhesive cover and held at 25° C., 14:10 light-dark for five to seven days. Percent mortality was recorded for the larvae in each well; activity in the eight wells was then averaged. The results are indicated in the table entitled “Table ABC: Biological Results” (See Table Section).

For assay [2], the system named is CEW (Helicoverpa zea). Briefly: Bioassay on Corn Earworm (CEW), 128-well diet tray. The format is in vivo. The note with it: Helicoverpa zea, 168 h; for pest or weed control at 50 µg/cm2: read-out: Rating CEW; for pest or weed control at 0.5 µg/cm2: 0.5 μg/cm^2 on diet, read-out: Rating CEW (*Tested at 0.5 μg/cm^2). As for the experimental part: as §1
Bioassays on CEW (Helicoverpa zea)
as §2

Where [3] appears, read: percent mortality, second instar larvae, 50 μg/cm^2 on diet, five to seven days.
Setting [4] is: percent mortality, second instar larvae, five to seven days.

Like-named read-outs stand apart in the source and are kept apart here.

On to `COc1ccc(N/C(=N/C(=O)Nc2ccc(-c3ncn(-c4ccc(C(F)(F)F)cc4)n3)cc2)SCOC(=O)C(C)C)c(C)c1` [Molecule A1, (E)-((N′-(4-methoxy-2-methylphenyl)-N-((4-(1-(4-(trifluoromethyl)phenyl)-1H-1,2,4-triazol-3-yl)phenyl)carbamoyl)carbamimidoyl)thio) methyl isobutyrate], for which the pest or weed control at 50 µg/cm2 in assay [1] (setting [3]) and in assay [2] (setting [3]) was 50 to 100% each time.
On to `COc1ccc(N/C(=N/C(=O)Nc2ccc(-c3ncn(-c4ccc(C(F)(F)F)cc4)n3)cc2)SC)c(C)c1` [Molecule A2, (Z)-Methyl N-(4-methoxy-2-methylphenyl)-N′-((4-(1-(4-(trifluoromethyl)phenyl)-1H-1,2,4-triazol-3-yl)phenyl)carbamoyl)carbamimidothioate], for which the pest or weed control at 50 µg/cm2 in assay [1] (setting [3]) and in assay [2] (setting [3]) was 50 to 100% in each case.
`CC(C)C(=O)OCS/C(=N\C(=O)Nc1ccc(-c2ncn(-c3ccc(OC(F)(F)F)cc3)n2)cc1)Nc1ccccc1C(C)C` [Molecule A5, (Z)—((N-(2-Isopropylphenyl)-N′-((4-(1-(4-(trifluoromethoxy)phenyl)-1H-1,2,4-triazol-3-yl)phenyl)carbamoyl)carbamimidoyl)thio)methyl isobutyrate]: the pest or weed control at 50 µg/cm2 in assay [1] (setting [3]) and in assay [2] (setting [3]) was 50 to 100% throughout.
On to `CC(C)C(=O)OCS/C(=N\C(=O)Nc1ccc(-c2ncn(-c3ccc(OC(F)(F)C(F)(F)F)cc3)n2)cc1)Nc1ccccc1C(C)C` [Molecule A6, (Z)—((N-(2-Isopropylphenyl)-N′-((4-(1-(4-(pentafluoroethoxy)phenyl)-1H-1,2,4-triazol-3-yl)phenyl)carbamoyl)carbamimidoyl)thio)methyl isobutyrate], for which the pest or weed control at 50 µg/cm2 in assay [1] (setting [3]) and in assay [2] (setting [3]) was 50 to 100% in each case.
Turning to `Cc1cccc(C)c1N/C(=N/C(=O)Nc1ccc(-c2ncn(-c3ccc(C(F)(F)F)cc3)n2)cc1)SCOC(=O)CNC(=O)OCc1ccccc1` [Molecule A8, (Z)—((N-(2,6-Dimethylphenyl)-N′-((4-(1-(4-(trifluoromethyl)phenyl)-1H-1,2,4-triazol-3-yl)phenyl)carbamoyl)carbamimidoyl)thio)methyl 2-(((benzyloxy)carbonyl)amino)acetate], the pest or weed control at 50 µg/cm2 in assay [1] and in assay [2] was 50 to 100% each time.
On to `COc1ccc(N/C(=N/C(=O)Nc2ccc(-c3ncn(-c4ccc(OC(F)(F)F)cc4)n3)cc2)SCS[C@@H]2O[C@@H](C)[C@H](OC)[C@@H](OC)[C@H]2OC)c(C)c1` [Molecule A10, (Z)-(((2S,3R,4R,5S,6S)-3,4,5-Trimethoxy-6-methyltetrahydro-2H-pyran-2-yl)thio)methyl N-(4-methoxy-2-methylphenyl)-N′-((4-(1-(4-(trifluoromethoxy)phenyl)-1H-1,2,4-triazol-3-yl)phenyl)carbamoyl) carbamimidothioate], for which the pest or weed control at 50 µg/cm2 in assay [1] (setting [3]) and in assay [2] (setting [3]) was 50 to 100% each time.
Regarding `Cc1cccc(C)c1N/C(S)=N/C(=O)Nc1ccc(-c2ncn(-c3ccc(C(F)(F)F)cc3)n2)cc1` [Molecule A12], the pest or weed control at 50 µg/cm2 in assay [1] (setting [3]) and in assay [2] (setting [3]) was 50 to 100% throughout.
Consider `CC(C)c1ccccc1NC(=O)NC(=O)Nc1ccc(-c2ncn(-c3ccc(OC(F)(F)F)cc3)n2)cc1` [Molecule A13, 1-(2-isopropylphenyl)-3-[[4-[1-[4-(trifluoromethoxy)phenyl]-1,2,4-triazol-3-yl]phenyl]carbamoyl]urea], for which the pest or weed control at 50 µg/cm2 in assay [1] (setting [3]) and in assay [2] (setting [3]) was 50 to 100% each time.
For the molecule `CC(C)c1ccccc1N1C(=O)CS/C1=N\C(=O)Nc1ccc(-c2ncn(-c3ccc(OC(F)(F)F)cc3)n2)cc1` [Molecule A19, (Z)-1-(3-(2-isopropylphenyl)-4-oxothiazolidin-2-ylidene)-3-(4-(1-(4-(trifluoromethoxy)phenyl)-1H-1,2,4-triazol-3-yl)phenyl)urea], the pest or weed control at 50 µg/cm2 in assay [1] (setting [3]) and in assay [2] (setting [3]) was 50 to 100% in each case.
In the case of `CC(=O)/C(C(=O)Nc1ccc(-c2ncn(-c3ccc(OC(F)(F)F)cc3)n2)cc1)=C(/S)Nc1ccccc1C(C)C` [Molecule A20, (E)-3-hydroxy-2-((2-isopropylphenyl)carbamothioyl)-N-(4-(1-(4-(trifluoromethoxy)phenyl)-1H-1,2,4-triazol-3-yl)phenyl)but-2-enamide], the pest or weed control at 50 µg/cm2 in assay [1] (setting [3]) and in assay [2] (setting [3]) was 50 to 100% each time.
Turning to `CC(C)c1ccccc1N/C(S)=C/C(=O)Nc1ccc(-c2ncn(-c3ccc(OC(F)(F)F)cc3)n2)cc1` [Molecule A21, 3-((2-isopropylphenyl)amino)-3-thioxo-N-(4-(1-(4-(trifluoromethoxy)phenyl)-1H-1,2,4-triazol-3-yl)phenyl)propanamide], the pest or weed control at 50 µg/cm2 in assay [1] (setting [3]) and in assay [2] (setting [3]) was 50 to 100% each time.
On to `Cc1ccccc1N/C(S)=C/C(=O)Nc1ccc(-c2ncn(-c3ccc(OC(F)(F)F)cc3)n2)cc1` [Molecule A22, 3-thioxo-3-(o-tolylamino)-N-(4-(1-(4-(trifluoromethoxy)phenyl)-1H-1,2,4-triazol-3-yl)phenyl)propanamide], for which the pest or weed control at 50 µg/cm2 in assay [1] (setting [3]) and in assay [2] (setting [3]) was 50 to 100% throughout.
As for `Cc1cccc(C)c1N/C(S)=C/C(=O)Nc1ccc(-c2ncn(-c3ccc(OC(F)(F)F)cc3)n2)cc1` [Molecule A23, 3-((2,6-dimethylphenyl)amino)-3-thioxo-N-(4-(1-(4-(trifluoromethoxy)phenyl)-1H-1,2,4-triazol-3-yl)phenyl)propanamide], the pest or weed control at 50 µg/cm2 in assay [1] (setting [3]) and in assay [2] (setting [3]) was 50 to 100% in each case.
Regarding `CC(C)c1ccccc1N/C(S)=C(\C#N)C(=O)Nc1ccc(-c2ncn(-c3ccc(OC(F)(F)F)cc3)n2)cc1` [Molecule A25, (Z)-2-cyano-3-((2-isopropylphenyl)amino)-3-mercapto-N-(4-(1-(4-(trifluoromethoxy)phenyl)-1H-1,2,4-triazol-3-yl)phenyl)acrylamide], in assay [2] (setting [3]), the pest or weed control at 50 µg/cm2 lay in the range of 0 to 50%.
Consider `N#C/C(C(=O)Nc1ccc(-c2ncn(-c3ccc(OC(F)(F)F)cc3)n2)cc1)=C(/S)Nc1ccccc1-c1ccccc1` [Molecule A27, (Z)-3-([1,1′-Biphenyl]-2-ylamino)-2-cyano-3-mercapto-N-(4-(1-(4-(trifluoromethoxy)phenyl)-1H-1,2,4-triazol-3-yl)phenyl)acrylamide], for which the pest or weed control at 50 µg/cm2 in assay [2] (setting [3]) is 0 to 50%.
The same measure, in the same setting: for `Cc1cccc(C)c1N/C(S)=C(\C#N)C(=O)Nc1ccc(-c2ncn(-c3ccc(OC(F)(F)F)cc3)n2)cc1` [Molecule A28, (Z)-2-Cyano-3-mercapto-3-((2,6-dimethylphenyl)amino)-N-(4-(1-(4-(trifluoromethoxy)phenyl)-1H-1,2,4-triazol-3-yl)phenyl)acrylamide] the value was 50 to 100%.
Take `Cc1cccc(C)c1-n1c(C)cs/c1=N\C(=O)Nc1ccc(-c2ncn(-c3ccc(OC(F)(F)F)cc3)n2)cc1` [Molecule A42]: in assay [1] (setting [3]), the pest or weed control at 50 µg/cm2 fell in the range of 0 to 50%.
Turning to `Cc1cc(C)c(-n2c(C)cs/c2=N\C(=O)Nc2ccc(-c3ncn(-c4ccc(OC(F)(F)F)cc4)n3)cc2)c(C)c1` [Molecule A43, (Z)-1-(3-mesityl-4-methylthiazol-2(3H)-ylidene)-3-(4-(1-(4-(trifluoromethoxy)phenyl)-1H-1,2,4-triazol-3-yl)phenyl)urea], the pest or weed control at 50 µg/cm2 in assay [2] (setting [3]) fell in the range of 50 to 100%.
Consider `O=C(/N=C1\SCC(=O)N1c1ccccc1C1CC1)Nc1ccc(-c2ncn(-c3ccc(OC(F)(F)F)cc3)n2)cc1` [Molecule A66], for which, in assay [1] (setting [3]), the pest or weed control at 50 µg/cm2 lay within 50 to 100%.
On the same count and under the same terms, to `Cc1cccc(N/C(S)=N/C(=O)Nc2ccc(-c3ncn(-c4ccc(OC(F)(F)F)cc4)n3)cc2)c1C` [Molecule A71] belongs 50 to 100%.
As to `Cc1ccc(C(C)C)c(N/C(S)=N/C(=O)Nc2ccc(-c3ncn(-c4ccc(OC(F)(F)F)cc4)n3)cc2)c1` [Molecule A83], the pest or weed control at 50 µg/cm2 in assay [1] (setting [3]) lay within 50 to 100%.
Regarding `CC(C)(C)c1ccccc1N1C(=O)CS/C1=N\C(=O)Nc1ccc(-c2ncn(-c3ccc(OC(F)(F)F)cc3)n2)cc1` [Molecule A95], in assay [2] (setting [4]), the pest or weed control at 0.5 µg/cm2 was in the range of 50 to 100%.
As for `CC(C)c1ccccc1N/C(S)=N/C(=O)Nc1ccc(-c2nnc(-c3ccc(OC(F)(F)C(F)(F)F)cc3)o2)cc1` [Molecule A96, N-[[(2-isopropyllphenyl)amino]thioxomethyl]-N′-((4-(5-(4-(perfluoroethoxy)phenyl)-1,3,4-oxadiazol-2-yl)phenyl))urea], the pest or weed control at 50 µg/cm2 in assay [1] (setting [3]) fell in the range of 50 to 100%.
Consider `CC(C)c1ccccc1N1C(=O)CS/C1=N\C(=O)Nc1ccc(-c2nnc(-c3ccc(OC(F)(F)C(F)(F)F)cc3)o2)cc1` [Molecule A102, (Z)-1-(3-(2-isopropylphenyl)-4-oxothiazolidin-2-ylidene)-3-(4-(5-(4-(perfluoroethoxy)phenyl)-1,3,4-oxadiazol-2-yl)phenyl)urea], for which the pest or weed control at 0.5 µg/cm2 in assay [2] (setting [4]) was in the range of 50 to 100%.
Turning to `Cc1cc(C)cc(N2C(=O)CS/C2=N\C(=O)Nc2ccc(-c3ncn(-c4ccc(OC(F)(F)F)cc4)n3)cc2)c1` [Molecule A104], the pest or weed control at 0.5 µg/cm2 in assay [2] (setting [4]) fell in the range of 50 to 100%.
Consider `CC(C)c1ccccc1N/C(S)=N/C(=O)Nc1ccc(-c2ncn(-c3ccc(OC(F)(F)C(F)(F)F)cc3)n2)cc1` [Molecule A112], for which, in assay [1] (setting [3]), the pest or weed control at 50 µg/cm2 lay in the range of 50 to 100%.
For `CC(C)c1ccccc1N/C(S)=N/C(=O)Nc1ccc(-c2ncn(-c3ccc(C(F)(F)C(F)(F)C(F)(F)F)cc3)n2)cc1` [Molecule A113], the pest or weed control at 50 µg/cm2 in assay [1] lay within 50 to 100%.
